Literature values as cited in patent US8802627B2, “Fusion protein composed of matrix metalloproteinase-2 inhibitor peptide derived from amyloid-B precursor protein and tissue inhibitor of metalloproteinase-2” (Oriental Yeast Co., Ltd., priority 2008, dated 2014).

Legend:
MMP-2 = molecular target: T1, MMP-2 (Homo sapiens, UniProt P08253); conditions: prior art literature, J. Biol. Chem. 278, 14020-14028, 2003; read-out: reported IC50 upon MMP-2
T1 construct: which now consists of 551 amino acid residues is designated active MMP-2
T1 sequence (P08253 110-660): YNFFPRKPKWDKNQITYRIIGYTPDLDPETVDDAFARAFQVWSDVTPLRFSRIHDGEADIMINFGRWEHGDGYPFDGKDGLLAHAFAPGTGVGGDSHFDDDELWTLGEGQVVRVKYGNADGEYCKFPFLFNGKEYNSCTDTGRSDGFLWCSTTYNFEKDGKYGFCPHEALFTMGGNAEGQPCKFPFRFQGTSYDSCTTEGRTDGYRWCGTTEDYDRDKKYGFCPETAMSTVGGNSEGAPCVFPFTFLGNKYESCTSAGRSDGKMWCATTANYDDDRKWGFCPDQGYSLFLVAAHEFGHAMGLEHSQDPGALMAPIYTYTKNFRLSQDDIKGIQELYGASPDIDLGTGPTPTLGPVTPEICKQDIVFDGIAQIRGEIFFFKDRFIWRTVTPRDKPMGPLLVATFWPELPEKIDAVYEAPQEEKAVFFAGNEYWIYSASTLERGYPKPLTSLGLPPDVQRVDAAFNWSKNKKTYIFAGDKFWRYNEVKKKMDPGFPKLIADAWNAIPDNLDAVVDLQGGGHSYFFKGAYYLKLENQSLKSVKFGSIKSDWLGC

MT1-MMP catalytic domain = MT1-MMP catalytic domain (Homo sapiens, UniProt P50281); conditions: prior art literature, J. Biol. Chem. 278, 14020-14028, 2003; read-out: reported IC50 upon MT1-MMP catalytic domain
MMP-7 = molecular target: T2, MMP-7 (Homo sapiens, UniProt P09237); conditions: prior art literature, J. Biol. Chem. 278, 14020-14028, 2003; read-out: reported IC50 upon MMP-7
T2 sequence (P09237 95-267): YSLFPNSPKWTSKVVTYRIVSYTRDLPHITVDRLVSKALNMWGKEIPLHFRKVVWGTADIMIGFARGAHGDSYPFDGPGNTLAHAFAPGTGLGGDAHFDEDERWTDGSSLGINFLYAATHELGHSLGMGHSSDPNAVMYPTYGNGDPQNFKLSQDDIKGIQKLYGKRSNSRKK

MMP-9 = MMP-9 (Homo sapiens, UniProt P14780); conditions: prior art literature, J. Biol. Chem. 278, 14020-14028, 2003; read-out: reported IC50 upon MMP-9
MMP-9, sequence (P14780 94-707): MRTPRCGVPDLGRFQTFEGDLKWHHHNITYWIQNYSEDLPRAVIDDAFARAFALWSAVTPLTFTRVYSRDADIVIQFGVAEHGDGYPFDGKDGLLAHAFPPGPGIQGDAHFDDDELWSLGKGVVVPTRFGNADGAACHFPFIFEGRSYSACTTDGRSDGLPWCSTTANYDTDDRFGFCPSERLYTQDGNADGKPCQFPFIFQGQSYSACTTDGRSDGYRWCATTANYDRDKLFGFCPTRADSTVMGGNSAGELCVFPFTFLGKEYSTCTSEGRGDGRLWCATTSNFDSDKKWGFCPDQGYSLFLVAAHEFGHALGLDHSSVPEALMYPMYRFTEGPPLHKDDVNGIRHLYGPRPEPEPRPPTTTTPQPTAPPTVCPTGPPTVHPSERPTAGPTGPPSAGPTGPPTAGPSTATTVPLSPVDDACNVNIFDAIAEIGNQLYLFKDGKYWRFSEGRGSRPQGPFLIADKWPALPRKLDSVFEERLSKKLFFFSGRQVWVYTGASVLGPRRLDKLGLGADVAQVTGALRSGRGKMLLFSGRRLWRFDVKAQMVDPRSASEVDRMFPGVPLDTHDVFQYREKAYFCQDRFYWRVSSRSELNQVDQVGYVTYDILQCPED

IC50 (MMP-2): 30 nM
IC50 (MT1-MMP catalytic domain): 2000 nM
IC50 (MMP-7): 15 µM
IC50 (MMP-9): 20 µM
Sequence: ISYGNDALMP [APP-IP]
